Patent US6346098B1, “Methods and kits for locally administering an active agent to an interstitial space of a host” (The Board of Trustees of the Leland Stanford Junior …, priority 2000, dated 2002)

Tests used:
[1] = total group of 13 pigs, coronary venous injection
[2] = Coronary venous injection of Evans Blue dye via AIV or MCV, regional myocardial infiltration; type: in vivo, pigs; conditions: LV apex, anterior interventricular septum and anterior wall via AIV, inferoposterior wall via MCV
Protocol: Methods and Results: In 13 anesthetized pigs the coronary sinus was cannulated percutaneously and a balloon-tipped catheter was advanced to the anterior interventricular vein (AIV) or middle cardiac vein (MCV). […] Injection was performed with hyperbaric pressure in 8/13 cases (61%).

Row | Structure (SMILES) | persistence of contrast in myocardium (videodensitometric analysis) [1] | time for 50% clearance from myocardium (videodensitometric analysis) ([1]; FIG. 1) | infiltration of targeted myocardial regions [2]
1 | CC(=O)Nc1c(I)c(NC(C)=O)c(I)c(C(=O)O)c1I [diatrizoate] | at least 30 minutes | ~4 min | –
2 | Cc1cc(-c2ccc(/N=N/c3ccc4c(S(=O)(=O)O)cc(S(=O)(=O)O)c(N)c4c3O)c(C)c2)ccc1/N=N/c1ccc2c(S(=O)(=O)O)cc(S(=O)(=O)O)c(N)c2c1O [Evans Blue dye, Evans Blue] | – | – | localized, regional infiltration was reproducibly accomplished
